From the supplement of paper PMC10307832

Tests used:
Assay in all cases: relative viability (nuclei count vs DMSO), 5 days (fraction); higher = more cells survive
Tivantinib + Palbociclib = compound: O=C1NC(=O)[C@@H](c2cn3c4c(cccc24)CCC3)[C@@H]1c1c[nH]c2ccccc12 [Tivantinib] + CC(=O)c1c(C)c2cnc(Nc3ccc(N4CCNCC4)cn3)nc2n(C2CCCC2)c1=O [Palbociclib] (partner 0.5 µM)
How it was run: (§1)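 For relative viability, nuclei counts in treated wells were divided by those in vehicle wells. Lung cancer cell lines had been pin-tool dosed in 1536-well plates the day after seeding and cultured for 5 days, then fixed and stained in one step (final 0.05% Triton X-100, 1% formaldehyde, 1 ug/ml Hoechst) and imaged at 4×. Doses were one drug alone or a fixed anchor-drug dose plus five library-drug doses (not always all listed) in √10 steps, and values are duplicate-plate medians.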

Tivantinib + AZD7762 = compound: O=C1NC(=O)[C@@H](c2cn3c4c(cccc24)CCC3)[C@@H]1c1c[nH]c2ccccc12 [Tivantinib] + NC(=O)Nc1cc(-c2cccc(F)c2)sc1C(=O)N[C@H]1CCCNC1 [AZD7762] (partner 0.2 µM)
How it was run: as §1

Crenolanib + Alpelisib = compound: CC1(COc2ccc3c(c2)ncn3-c2ccc3cccc(N4CCC(N)CC4)c3n2)COC1 [Crenolanib] + Cc1nc(NC(=O)N2CCC[C@H]2C(N)=O)sc1-c1ccnc(C(C)(C)C(F)(F)F)c1 [Alpelisib] (partner 2 µM)
How it was run: as §1

Tivantinib + Bortezomib = compound: O=C1NC(=O)[C@@H](c2cn3c4c(cccc24)CCC3)[C@@H]1c1c[nH]c2ccccc12 [Tivantinib] + CC(C)C[C@H](NC(=O)[C@H](Cc1ccccc1)NC(=O)c1cnccn1)B(O)O [Bortezomib] (partner 0.002 µM)
How it was run: as §1

| Cell Line | relative viability (Tivantinib + Palbociclib; first compound 0.01 µM) | relative viability (Tivantinib + Palbociclib; first compound 0.03162 µM) | relative viability (Tivantinib + Palbociclib; first compound 0.1 µM) | relative viability (Tivantinib + Palbociclib; first compound 0.3162 µM) | relative viability (Tivantinib + AZD7762; first compound 0.01 µM) | relative viability (Tivantinib + AZD7762; first compound 0.03162 µM) | relative viability (Tivantinib + AZD7762; first compound 0.1 µM) | relative viability (Tivantinib + AZD7762; first compound 0.3162 µM) | relative viability (Crenolanib + Alpelisib; first compound 0.01 µM) | relative viability (Crenolanib + Alpelisib; first compound 0.03162 µM) | relative viability (Crenolanib + Alpelisib; first compound 0.1 µM) | relative viability (Crenolanib + Alpelisib; first compound 0.3162 µM) | relative viability (Crenolanib + Alpelisib; first compound 1 µM) | relative viability (Tivantinib + Bortezomib; first compound 0.01 µM) | relative viability (Tivantinib + Bortezomib; first compound 0.03162 µM) | relative viability (Tivantinib + Bortezomib; first compound 0.1 µM) | relative viability (Tivantinib + Bortezomib; first compound 0.3162 µM) |
| --- | --- | --- | --- | --- | --- | --- | --- | --- | --- | --- | --- | --- | --- | --- | --- | --- | --- |
| NCI-H522 | 1.06 | 0.737 | 1.03 | 0.812 | 0.829 | 0.812 | 0.864 | 0.612 | – | – | – | – | – | – | – | – | – |
| HCC-366 | 0.434 | 0.362 | 0.399 | 0.337 | 0.229 | 0.403 | 0.316 | 0.237 | 0.484 | 0.655 | 0.351 | 0.428 | 0.406 | 0.996 | 1.16 | 1.03 | 1.03 |
| A-427 | 0.547 | 0.551 | 0.484 | 0.507 | 0.792 | 0.829 | 0.749 | 0.651 | 1.06 | 1.1 | 1.02 | 1.12 | 0.977 | 0.997 | 1 | 0.854 | 1.06 |
| NCI-H23 | 0.614 | 0.457 | 0.462 | 0.493 | 0.283 | 0.23 | 0.319 | 0.336 | 0.845 | 0.797 | 0.604 | 0.778 | 0.741 | 1.13 | 1.11 | 0.996 | 0.965 |
| NCI-H1755 | 0.437 | 0.44 | 0.432 | 0.459 | 0.457 | 0.476 | 0.47 | 0.424 | 0.958 | 0.953 | 0.915 | 1.05 | 0.898 | 0.974 | 0.94 | 0.934 | 1.01 |
| EPLC-272H | 0.298 | 0.323 | 0.308 | 0.273 | 0.278 | 0.284 | 0.21 | 0.268 | – | 0.879 | 0.821 | 1.03 | 0.938 | 1.16 | 0.813 | 0.741 | 0.608 |
| PC-3 [JPC-3] | 0.482 | 0.6 | 0.508 | 0.491 | 0.781 | 0.823 | 0.884 | 0.601 | 1.07 | 0.982 | 0.981 | 1.02 | 1.04 | 0.839 | 0.899 | 0.863 | 0.667 |
| NCI-H1975 | 0.55 | 0.536 | 0.536 | 0.37 | 0.734 | 0.667 | 0.714 | – | 0.602 | 0.663 | 0.605 | 0.642 | 0.61 | 0.411 | 0.366 | 0.442 | 0.405 |
| NCI-H1703 | – | – | – | – | 0.159 | 0.152 | 0.114 | 0.124 | 0.33 | 0.378 | 0.242 | 0.174 | 0.151 | 0.36 | 0.362 | 0.29 | 0.31 |
| HCC-44 | 0.946 | 0.953 | 0.883 | 0.945 | 1.04 | 1.05 | 1.08 | 0.985 | 0.836 | 0.857 | 0.718 | 0.932 | 0.782 | 0.87 | 0.975 | 0.883 | 0.915 |
| SK-MES-1 | 0.336 | 0.345 | 0.296 | 0.361 | – | – | – | – | 0.849 | 0.972 | 0.866 | 0.916 | 0.95 | – | – | – | – |
| NCI-H727 | 0.619 | 0.528 | 0.714 | – | 0.535 | 0.421 | 0.551 | – | 0.609 | 0.671 | 0.563 | 0.665 | 0.627 | 0.751 | 0.772 | 0.867 | – |
| RERF-LC-KJ | 0.644 | 1.1 | 1.01 | 0.647 | 1.08 | 0.921 | 0.952 | 0.92 | 0.839 | 0.761 | 0.802 | 1.03 | 0.73 | 1.18 | 1.22 | 1.19 | 0.963 |
| Calu-6 | – | – | – | – | – | – | – | – | 1.01 | 0.92 | 1 | 1.17 | 1.12 | 1.08 | 1.07 | 0.969 | 0.738 |
| LCLC-103H | 0.477 | 0.449 | 0.486 | 0.409 | 0.808 | 0.702 | 0.684 | 0.793 | 0.852 | 0.859 | 0.888 | 0.886 | 0.942 | 0.909 | 0.895 | 0.966 | 1.03 |
| CAL-12T | 0.409 | 0.345 | 0.347 | 0.185 | 0.563 | 0.603 | 0.574 | 0.437 | 1.33 | 1.12 | 1.21 | 1.49 | 1.2 | 0.999 | 0.873 | 1.03 | 0.854 |
| SK-LU-1 | 0.42 | 0.394 | 0.423 | 0.34 | – | – | – | – | 1.04 | 0.931 | 0.703 | 1.27 | 0.87 | 1.07 | 0.954 | 1.32 | 1.05 |
| NCI-H1651 | 0.518 | 0.461 | 0.495 | 0.424 | 0.452 | 0.404 | 0.437 | 0.353 | 0.89 | 0.903 | 0.893 | 0.982 | 0.867 | 0.957 | 1.03 | 0.918 | 0.942 |
| BEN | 0.446 | 0.474 | 0.508 | 0.447 | 0.705 | 0.535 | 0.617 | 0.581 | 0.917 | 0.895 | 0.904 | 0.972 | 0.97 | 0.75 | 0.561 | 0.744 | 0.824 |
| EMC-BAC-2 | 0.518 | 0.512 | 0.503 | 0.527 | 1.14 | 1.09 | 1.08 | 1.22 | 0.747 | 0.758 | 0.68 | 0.881 | 0.771 | 1.05 | 0.989 | 1.04 | 0.969 |
| LXF-289 | 0.563 | 0.563 | 0.545 | 0.584 | 1.14 | 1.13 | 1.07 | 1.08 | 1.02 | 1.04 | 1.01 | 1.09 | 1.02 | 1.04 | 1 | 0.922 | 1.04 |
